Experimental data reported in patent US20040242524A1, “Chemotherapeutic composition and method” (priority 1998, published 2004).
In brackets after ≈: the same amount, converted by molar mass. Several values for one entry are separate records, joined by “and”; a condition that tells them apart may be missing. Equal entries are not always repeated. Where two headings read alike, the source gives them in different places.

Experiments:
B-16 melanoma cells [1] = assay: Inhibition of B-16 melanoma cell proliferation by chemotherapeutic agents ± MCC (MTT reduction); format: cell-based, murine; conditions: for IC50: B16; for inhibited proliferation: 72 h, MTT
Protocol: B-16 melanoma cells, at 3×10^5 cells/ml, were incubated for 72 h with the chemotherapeutic agents mitomycin-C, 5-fluorouracil and cisplatin in the absence and in the presence of MCC. Cell proliferation was determined using dimethylthiazol-diphenyltetrazolium bromide (MTT) reduction (Mosman et al. Journal of Immunological Methods 65:55-63, 1983). After 72 h, 20 μl of MTT in culture medium was added to each well and incubated for 3 h. Medium was then aspirated from each well, 100 μl of acidified isopropyl alcohol was added to each sample and reduced MTT was solubilized by mixing. The absorbency of the reaction product was determined using an ELISA microplate reader at a wavelength of 570 nm.
B-16 melanoma cells were incubated with 0.01 to 100 μg/ml of mitomycin-C, with 1 to 100 μg/ml of MCC and with 0.01 to 10 μg/ml of mitomycin-C+1 μg/ml MCC. Mitomycin-C is an anti-tumor antibiotic produced by Streptomyces caespitosus, which cross-links DNA, depolymerizes DNA and forms free radicals.
B-16 melanoma cells were incubated with 0.01 to 100 μg/ml of 5-fluorouracil, with 1 to 100 μg/ml of MCC and with 0.01 to 10 μg/ml of 5-fluorouracil+1 μg/ml MCC. 5-fluorouracil is an antimetabolite, which interferes with DNA and RNA synthesis.
B-16 melanoma cells were incubated with 0.01 to 100 μg/ml of cisplatin, with 1 to 100 μg/ml of MCC and with 0.01 to 10 μg/ml of cisplatin+1 μg/ml MCC. Cisplatin is an alkylating agent that cross-links DNA and inhibits DNA precursors.

[2] = test system: Jurkat T cell leukemia cells; assay: Cell cycle analysis, synchronously dividing (MTX) Jurkat cells; format: cell-based, human; conditions: MTX alone (0.08 μM)
Protocol: (§1) Cell cycle stage was determined using a CYCLETEST™ PLUS DNA commercial kit (Becton Dickinson, San Jose, Calif., USA). Briefly, nuclei from treated cells were obtained by dissolving the cell membrane in a nonionic detergent, eliminating the cell cytoskeleton and nuclear proteins with trypsin, digesting the cellular RNA with RNase, and stabilizing the nuclear chromatin with spermine. Propidium iodide was added to the cell nuclei and their fluorescence was analyzed in a flow cytometer equipped with electronic doublet discrimination capability (FACSCalibur, Becton Dickinson). Accumulation of cells in GO/G1, S (SE, SM, SL) or G2/M phases of the cell cycle was analyzed using MODFIT LT software (Verity Software House Inc., Topsham, Mass., USA). Results are expressed as percentage of cells in each phase of the cell cycle.
(§2) To synchronize cell populations, exponentially growing cells were incubated in tissue culture medium containing 0.04 to 0.16 μM methotrexate (MTX) for 20 hours. The MTX medium was removed, cells were washed extensively with phosphate buffered saline (PBS), fresh medium was added, incubation was continued for 8 hours and cell cycle analysis was performed as in Example 4.
(§3) Exponentially growing Jurkat, HL-60, HL-60MX1 and EL-4 cells, at 1×10^6 cells/ml, and B-16 cells, at 3×10^5 cells/ml, were prepared for analysis as in Example 5 with 0, 10 and 100 μg/ml of MCC in the MTX medium.
Exponentially growing Jurkat leukemia cells, at 1×10^6 cells/ml, were prepared for analysis as in Example 5 with 0 and 10 μg/ml of MCC and 10 μg/ml DNase I-treated MCC in the MTX medium.

EL-4 lymphoma cells = assay: Cell cycle analysis, synchronously dividing (MTX) EL-4 cells; format: cell-based, murine; conditions: MTX alone (0.16 μM)
Protocol: as §1, §2, §3

B-16 melanoma cells [3] = assay: Cell cycle analysis, synchronously dividing (MTX) B-16 cells; format: cell-based, murine; conditions: MTX alone
Protocol: as §1, §2, §3

[4] = test system: promyelocytic HL60 leukemia cells (HL-60); assay: Cell cycle analysis, synchronously dividing (MTX) HL-60 cells; format: cell-based, human; conditions: MTX alone (0.04 μM)
Protocol: as §1, §2, §3

[5] = test system: mitoxantrone resistant promyelocytic HL-60MX1 leukemia cells; assay: Cell cycle analysis, synchronously dividing (MTX) HL-60MX1 cells; format: cell-based, human; conditions: MTX alone (0.04 μM)
Protocol: as §1, §2, §3

B-16 melanoma tumors = assay: Effects of M-DNA and MCC in combination with mitomycin-C on B-16 melanoma tumors in mice; format: in vivo; conditions: nude BALB/c mice, subcutaneous B-16, after 4 weeks of treatment; Group 1 saline, Group 4 mitomycin-C
Protocol: B-16 melanoma cells are implanted subcutaneously into 30 male nude BALB/c mice and allowed to grow for 10 days. The mice are divided into 6 groups and tumor mass is measured in each mouse. On day 0, Group 1 mice receive saline, Group 2 mice receive M-DNA, Group 3 mice receive MCC, Group 4 mice receive mitomycin-C, Group 5 mice receive M-DNA and mitomycin-C and Group 6 mice receive MCC and mitomycin-C. After 4 weeks of treatment, the mice are sacrificed and the tumor mass and number of metastases are determined. Group 1 mice have the most tumor mass.

[6] = 0.1 μg/ml, in the presence of 1 μg/ml MCC
[7] = 1 μg/ml, in the presence of 1 μg/ml MCC

In the case of `O=c1[nH]cc(F)c(=O)[nH]1` [5-fluorouracil], the inhibition at 0.01 µg/mL (B-16 melanoma cells [1]; Mus musculus, B16, 72 h, read-out: inhibited proliferation, 0.01 μg/ml, agent alone, 72 h, MTT) is reported as roughly 8%, the inhibition at 0.01 µg/mL (B-16 melanoma cells [1]; Mus musculus, B16, 72 h, read-out: inhibited proliferation, 0.01 μg/ml, in the presence of 1 μg/ml MCC, 72 h, MTT) is reported as roughly 75% and the inhibition at 0.1 µg/mL (B-16 melanoma cells [1]; Mus musculus, B16, 72 h, read-out: inhibited proliferation, 0.1 μg/ml, agent alone, 72 h, MTT) is reported as roughly 50%. It also gave an inhibition at 0.1 µg/mL (B-16 melanoma cells [1]; Mus musculus, B16, 72 h, read-out: inhibited proliferation, 0.1 μg/ml, in the presence of 1 μg/ml MCC, 72 h, MTT) of roughly 85%, an inhibition at 1 µg/mL (B-16 melanoma cells [1]; Mus musculus, B16, 72 h, read-out: inhibited proliferation, 1 μg/ml, agent alone, 72 h, MTT) of roughly 90% and an inhibition at 1 µg/mL (B-16 melanoma cells [1]; Mus musculus, B16, 72 h, read-out: inhibited proliferation, 1 μg/ml, in the presence of 1 μg/ml MCC, 72 h, MTT) of roughly 90%. It also gave an inhibition at 10 µg/mL (B-16 melanoma cells [1]; Mus musculus, B16, 72 h, read-out: inhibited proliferation, 10 μg/ml, agent alone, 72 h, MTT) of 100%, an inhibition at 10 µg/mL (B-16 melanoma cells [1]; Mus musculus, B16, 72 h, read-out: inhibited proliferation, 10 μg/ml, in the presence of 1 μg/ml MCC, 72 h, MTT) of 100% and an inhibition at 100 µg/mL (B-16 melanoma cells [1]; Mus musculus, B16, 72 h, read-out: inhibited proliferation, 100 μg/ml, agent alone, 72 h, MTT) of 100%. The IC50 (B-16 melanoma cells [1]; Mus musculus, read-out: IC50 (concentration for 50% inhibition of B-16 melanoma cell proliferation), Drug + MCC at 1 μg/ml) was 0.005 µg/mL and the IC50 (B-16 melanoma cells [1]; Mus musculus, read-out: IC50 (concentration for 50% inhibition of B-16 melanoma cell proliferation), Drug Alone) was 0.12 µg/mL (≈ 0.923 µM).
`CN(Cc1cnc2nc(N)nc(N)c2n1)c1ccc(C(=O)N[C@@H](CCC(=O)O)C(=O)O)cc1` [MTX, methotrexate] was tested, and the “PERCENTAGE OF CELLS IN EACH PHASE: G0G1 + SE” value [2] was 44.6% and 43.0%, the “PERCENTAGE OF CELLS IN EACH PHASE: SL + G2M” value [2] was 30.1% and 31.4% and the “PERCENTAGE OF CELLS IN EACH PHASE: SM” value [2] was 25.3% and 25.6%. For the same compound, the “PERCENTAGE OF CELLS IN EACH PHASE: G0G1 + SE” value (EL-4 lymphoma cells) was 18.3%, the “PERCENTAGE OF CELLS IN EACH PHASE: SL + G2M” value (EL-4 lymphoma cells) was 63.3% and the “PERCENTAGE OF CELLS IN EACH PHASE: SM” value (EL-4 lymphoma cells) was 18.4%. For the same compound, the “PERCENTAGE OF CELLS IN EACH PHASE: G0G1 + SE” value (B-16 melanoma cells [3]) was 48.3%, the “PERCENTAGE OF CELLS IN EACH PHASE: SL + G2M” value (B-16 melanoma cells [3]) was 46.3% and the “PERCENTAGE OF CELLS IN EACH PHASE: SM” value (B-16 melanoma cells [3]) was 5.4%. The “PERCENTAGE OF CELLS IN EACH PHASE: G0G1 + SE” value [4] was 50.3%, the “PERCENTAGE OF CELLS IN EACH PHASE: SL + G2M” value [4] was 25.5% and the “PERCENTAGE OF CELLS IN EACH PHASE: SM” value [4] was 24.2%. For the same compound, the “PERCENTAGE OF CELLS IN EACH PHASE: G0G1 + SE” value [5] was 46.1%, the “PERCENTAGE OF CELLS IN EACH PHASE: SL + G2M” value [5] was 18.4% and the “PERCENTAGE OF CELLS IN EACH PHASE: SM” value [5] was 35.5%.
`N.N.[Cl][Pt][Cl]` [cisplatin] was tested, and the inhibited proliferation (B-16 melanoma cells [1]; 0.01 μg/ml, agent alone) was 0%, the inhibited proliferation (B-16 melanoma cells [1]; 0.01 μg/ml, in the presence of 1 μg/ml MCC) was “about 40%” and the inhibited proliferation (B-16 melanoma cells [1]; 0.1 μg/ml, agent alone) was “about 8%”. The inhibited proliferation (B-16 melanoma cells [1]; [6]) was “about 50%”, the inhibited proliferation (B-16 melanoma cells [1]; 1 μg/ml, agent alone) was “about 62%” and the inhibited proliferation (B-16 melanoma cells [1]; [7]) was “about 70%”. For the same compound, the inhibited proliferation (B-16 melanoma cells [1]; 10 μg/ml, agent alone) was “about 90%”, the inhibited proliferation (B-16 melanoma cells [1]; 10 μg/ml, in the presence of 1 μg/ml MCC) was “about 90%” and the inhibited proliferation (B-16 melanoma cells [1]; 100 μg/ml, agent alone) was 100%. For the same compound, the “IC50 (concentration for 50% inhibition of B-16 melanoma cell proliferation), Drug + MCC at 1 μg/ml” value (B-16 melanoma cells [1]) was 0.16 µg/mL and the “IC50 (concentration for 50% inhibition of B-16 melanoma cell proliferation), Drug Alone” value (B-16 melanoma cells [1]) was 0.6 µg/mL.
In the case of `CO[C@@]12[C@H](COC(N)=O)C3=C(C(=O)C(C)=C(N)C3=O)N1C[C@@H]1N[C@@H]12` [mitomycin-C], the inhibited proliferation (B-16 melanoma cells [1]; 0.1 μg/ml, agent alone) is reported as “about 5%”, the inhibited proliferation (B-16 melanoma cells [1]; [6]) is reported as “about 40%” and the inhibited proliferation (B-16 melanoma cells [1]; 1 μg/ml, agent alone) is reported as “about 10%”. For the same compound, the inhibited proliferation (B-16 melanoma cells [1]; [7]) was “about 65%”, the inhibited proliferation (B-16 melanoma cells [1]; 10 μg/ml, agent alone) was 100% and the inhibited proliferation (B-16 melanoma cells [1]; 100 μg/ml, agent alone) was 100%. The inhibited proliferation (B-16 melanoma cells [1]; 100 μg/ml, in the presence of 1 μg/ml MCC) was 100%, the “IC50 (concentration for 50% inhibition of B-16 melanoma cell proliferation), Drug + MCC at 1 μg/ml” value (B-16 melanoma cells [1]) was 0.12 µg/mL and the “IC50 (concentration for 50% inhibition of B-16 melanoma cell proliferation), Drug Alone” value (B-16 melanoma cells [1]) was 2.2 µg/mL. For the same compound, the tumor mass (B-16 melanoma tumors) was “less tumor mass than Group 1 mice”.
